Where two headings read alike, the source gives them in different places.

The source of these data is paper PMC6949113, “Preclinical evaluation of AT-527, a novel guanosine nucleotide prodrug with potent, pan-genotypic activity against hepatitis C virus” (PLoS ONE, 2020).

A short description of series [1]: Monkey PK study, plasma. It counts as in vivo, cynomolgus monkey. The settings on record: for plasma concentration, individual monkeys: AT-527 30 mg/kg oral, monkeys 1-3, BQL: <0.0017 AT-511, <0.0032 AT-273; for plasma concentration: male cynomolgus monkeys; for Cmax / MRT last / Tmax / AUC(0-t): male, cynomolgus, cynomolgus monkey; for AUC(0-t): read-out: AUC0-last. From the text: Monkey PK study. Male non-naïve cynomolgus monkeys were obtained from Hainan Jingang Laboratory Animal Co., Ltd. (Hainan, China), group housed during the 5-day acclimation period or individually housed during the study in stainless steel mesh cages, provided ad libitum access to RO water, fed twice daily (~120 g Certified Monkey Diet daily; Beijing Vital Keao Feed Co., Ltd., Beijing, China) and given daily treats of fresh fruit. Additional environmental enrichment included classical music and cartoons. Three groups of 5 monkeys each were administered 30, 100 or 300 mg/kg AT-527 as a powder filled in empty porcine hard gelatin capsules (size 0). The monkeys were fasted overnight prior to dosing and fed 4 h after dosing. Three dosages were selected to provide assessments of dose proportionality, the top two representing potential doses for a repeated oral dose toxicity study in monkeys, and the lowest predicted to be more therapeutically relevant. A pill gun was used to place the capsule beyond the root of the animals’ tongues and their mouths were held loosely closed for approximately 30 sec to allow them to move the jaw and swallow the capsule. Immediately following capsule administration, 20 mL of water was given by mouth and then the mouth was opened to ensure the capsule was swallowed. Blood samples (~0.6 mL) were collected up to 72 h from three animals per dose group, and up to 4 h from the remaining two animals in each group, at the same time points described for rats. […] Blood samples were collected with a syringe from a peripheral blood vessel from restrained, non-sedated animals, immediately transferred to pre-chilled tubes containing ~1 mg K2EDTA•2H20 and 20 μL of 5 mM dichlorvos solution, mixed and placed on ice until plasma was prepared by centrifugation as described for rats. Immediately after centrifugation, plasma samples were extracted with 4 volumes ISS2, and the supernatants were clarified by centrifugation (12,000 rpm, 10 min, 4°C) and stored at ≤ -60°C until analyzed by LC-MS/MS as described below. After the 4-hr blood collection, two monkeys per dose group were anesthetized with intravenous injection of pentobarbital sodium (60 mg/kg) and then euthanized as described for rats. […] All analytes were quantitated by LC-MS/MS as described below.
LC-MS/MS analysis of rat and monkey plasma and tissue homogenate supernatants. For the analysis of AT-511 in rat plasma, aliquots were extracted with 10 volumes ISS2. The supernatants were clarified by centrifugation (4000 rpm for 10 min at 4°C) and 3 μL samples were injected onto an Acuity BEH C18 1.7 μm, 2.1 × 50 mm column and a Sciex API 4000 mass spectrometer (ESI positive ion, MRM mode). Mobile phases A (0.025% formic acid (FA) and 1 mM ammonium acetate (AA) in 5% ACN in water) and B (0.025% FA and 1 mM AA in 95% ACN in water) were used to elute samples (3 μL) at 0.6 mL/min with 10% B for 0.3 min followed by linear gradients to 60% B over 0.6 min and to 90% B over 0.2 min, and ending with 90% B for 0.4 min.
PK data analysis. […] The linear/log trapezoidal rule was applied in obtaining the PK parameters.

For series [2], the system named is Huh-7 cells. The series can be described thus: Intracellular metabolism in Huh-7 replicon cells. The class given is in vitro ADME, human. As to the method:
Huh-7 replicon cells. […] At each time point, the media was removed and the cells were washed twice with cold PBS, collected in 1 mL cold 60% MeOH, and extracted overnight at -20°C with internal standard added. […] Untreated cells were collected at each time point as a negative control.
S3 Protocol. LC-MS/MS analysis of AT-511 and metabolites in cultured cells. The supernatant extracts of each hepatocyte and Huh-7 cell incubation were separately analyzed by four different LC-MS/MS methods for quantitation of phosphoramidates, nucleosides, monophosphates, and triphosphates (methods 1, 2, 3 and 4, respectively), using synthetic reference standards of actually and potentially present compounds and using structurally related analogs as internal standards. Briefly, a Luna PFP (2), 5 µm, 100 x 4.6 mm column and an AB Sciex API-6500 mass spectrometer (ESI positive ion, MRM mode) were used for methods 1-3 and an XBridge Oligonucleotide, BEH C18, 2.5 µm, 50 x 2.1 mm column and a Thermo QE Plus mass spectrometer (electrospray, negative ion mode) were used for method 4. For methods 1 and 2, mobile phases A (10 mM ammonium acetate in water) and B (acetonitrile:methanol, 1:1, v/v) were used to elute samples (5 µL) at 1 mL/min with 15% B for 1.5 min followed by a linear gradient to 75% B over 1 min (method 1) or with 54% B for 1.3 min followed by a linear gradient to 90% B over 1.2 min. […]

Series [3] addresses human mitochondrial RNA polymerase (POLRMT) (Homo sapiens, UniProt O00411). Description: POLRMT nucleotide incorporation assay. The class given is biochemical.
Series [4] can be described thus: Intracellular metabolism in monkey hepatocytes. The class given is in vitro ADME, cynomolgus monkey. As for the experimental part: Hepatocytes. […] Cryopreserved male mouse (CD1), and fresh male Beagle dog and male cynomolgus monkey hepatocytes were obtained from BioreclamationIVT (Baltimore, MD) and were similarly plated with Matrigel in 6- or 24-well plates and maintained overnight in InVitroGRO™HI medium with Torpedo™ antibiotic (BioreclamationIVT). The protocol described above for measuring AT-511 and its metabolites in Huh-7 cells was repeated with the five different hepatocytes. Untreated cells were collected at 24 h, and the protein content of the cell lysates were determined using a bicinchoninic acid protein assay kit to assess the number of cells in each incubation. Separately, plated human hepatocytes were incubated for 6 h with 100 μM AT-511, followed by washout periods of 0, 2, 6, 18 and 30 h.
S3 Protocol. LC-MS/MS analysis of AT-511 and metabolites in cultured cells. The supernatant extracts of each hepatocyte and Huh-7 cell incubation were separately analyzed by four different LC-MS/MS methods for quantitation of phosphoramidates, nucleosides, monophosphates, and triphosphates (methods 1, 2, 3 and 4, respectively), using synthetic reference standards of actually and potentially present compounds and using structurally related analogs as internal standards. […]

human mitochondrial RNA polymerase (POLRMT), sequence (O00411 42-1230): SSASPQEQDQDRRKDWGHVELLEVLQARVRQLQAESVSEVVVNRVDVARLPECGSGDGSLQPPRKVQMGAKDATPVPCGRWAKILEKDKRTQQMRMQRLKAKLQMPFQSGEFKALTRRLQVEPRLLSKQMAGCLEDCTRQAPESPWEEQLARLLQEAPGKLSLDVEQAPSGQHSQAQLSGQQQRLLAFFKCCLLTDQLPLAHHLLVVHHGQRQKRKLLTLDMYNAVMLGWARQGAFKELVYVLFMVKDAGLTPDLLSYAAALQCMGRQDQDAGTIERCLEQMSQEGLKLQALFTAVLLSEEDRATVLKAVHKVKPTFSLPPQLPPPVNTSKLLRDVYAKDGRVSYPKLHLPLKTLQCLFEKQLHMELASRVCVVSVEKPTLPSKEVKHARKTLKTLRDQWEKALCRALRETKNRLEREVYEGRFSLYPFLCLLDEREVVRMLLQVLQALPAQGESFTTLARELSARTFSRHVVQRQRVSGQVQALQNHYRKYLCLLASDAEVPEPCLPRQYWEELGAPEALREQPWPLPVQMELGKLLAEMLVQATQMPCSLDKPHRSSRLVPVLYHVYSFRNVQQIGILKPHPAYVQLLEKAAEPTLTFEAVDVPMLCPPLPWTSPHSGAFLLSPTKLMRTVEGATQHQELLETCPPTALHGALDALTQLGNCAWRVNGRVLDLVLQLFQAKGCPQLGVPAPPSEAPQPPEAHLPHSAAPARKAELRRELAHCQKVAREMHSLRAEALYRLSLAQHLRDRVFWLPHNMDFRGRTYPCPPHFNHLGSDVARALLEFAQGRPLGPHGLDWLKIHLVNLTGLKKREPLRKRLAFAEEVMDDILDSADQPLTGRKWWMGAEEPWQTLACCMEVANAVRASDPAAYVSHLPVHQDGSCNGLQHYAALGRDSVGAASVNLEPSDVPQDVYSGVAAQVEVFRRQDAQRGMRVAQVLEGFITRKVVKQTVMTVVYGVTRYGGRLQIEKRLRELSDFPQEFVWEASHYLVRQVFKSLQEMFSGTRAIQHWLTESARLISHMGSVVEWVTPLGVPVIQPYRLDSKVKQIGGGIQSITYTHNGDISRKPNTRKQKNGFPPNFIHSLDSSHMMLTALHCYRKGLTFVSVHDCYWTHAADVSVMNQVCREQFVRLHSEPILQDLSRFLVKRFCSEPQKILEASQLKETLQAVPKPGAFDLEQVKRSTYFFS

Take `C[C@@]1(F)[C@H](O)[C@@H](CO)O[C@H]1n1cnc2c(=O)[nH]c(N)nc21` [AT-273]: the “plasma concentration, individual monkeys” value in series [1] (0.500 h) and in series [1] (1.00 h) was “BQL” each time. The plasma concentration entry in series [1] (single oral AT-527 100 mg/kg, 0.500 h, monkey 1) is “BQL”; in series [1] (single oral AT-527 100 mg/kg, 0.500 h, monkey 2) it was “BQL”; in series [1] (single oral AT-527 300 mg/kg, 0.500 h, monkey 1), “BQL”; in series [1] (single oral AT-527 300 mg/kg, 0.500 h, monkey 2) it was “BQL”; in series [1] (single oral AT-527 300 mg/kg, 0.500 h, monkey 3), “BQL”; in series [1] (single oral AT-527 300 mg/kg, 1.00 h, monkey 1), “BQL”. In addition, the plasma concentration entry in series [1] (single oral AT-527 300 mg/kg, 1.00 h, monkey 2) is given as “BQL”; in series [1] (single oral AT-527 300 mg/kg, 1.00 h, monkey 3), “BQL”; in series [1] (single oral AT-527 300 mg/kg, 72.0 h, monkey 3), “BQL”. The Cmax amounted to 140 ± 10 nM in series [1] (in vivo, po, 30 mg/kg); 440 ± 170 nM in series [1] (monkey plasma, single oral AT-527 100 mg/kg, read-out: Cmax); 310 ± 50 nM in series [1] (monkey plasma, single oral AT-527 300 mg/kg, read-out: Cmax). Further, the MRT last in series [1] (in vivo, po, 30 mg/kg) was 26.9 ± 1.9 h; in series [1] (in vivo, po, 100 mg/kg), 23.7 ± 3.8 h; in series [1] (in vivo, po, 300 mg/kg), 27.9 ± 8.1 h. Moreover, the Tmax in series [1] (in vivo, po, 30 mg/kg) is 16 ± 6.9 h; in series [1] (in vivo, po, 300 mg/kg) it was 17.3 ± 11.5 h. The AUC(0-t) in series [1] (monkey plasma, single oral AT-527 30 mg/kg) was found to be 5.42 ± 1.03 µM·h; in series [1] (monkey plasma, single oral AT-527 100 mg/kg) it was 10.1 ± 2.6 µM·h; in series [1] (monkey plasma, single oral AT-527 300 mg/kg), 12.2 ± 6.1 µM·h.
Turning to `C[C@@]1(F)[C@H](O)[C@@H](COP(=O)(O)OP(=O)(O)OP(=O)(O)O)O[C@H]1n1cnc2c(=O)[nH]c(N)nc21` [AT-9010], the “AUC0-24, intracellular” value in series [2] (10 μM AT-511) came out at 5051 pmol*h/10^6 cells; in series [4] (10 μM AT-511) it was 195 pmol*h/10^6 cells. Further, the “Cmax, intracellular” value in series [2] (10 μM AT-511, 0-24 h) is recorded as 420.3 ± 161.4 pmol/10^6 cells; in series [4] (10 μM AT-511, 0-24 h) it was 10.4 ± 0.2 pmol/10^6 cells. For the same compound, the Relative efficiency in series [3] ((kpol/Kd,app)incorrect/(kpol/Kd,app)correct) is given as 2.2 x 10^−6. Further, the Kd in series [3] (POLRMT-catalyzed nucleotide incorporation, read-out: Kd,app) turned out to be 204 ± 94 µM. Besides, the “kpol/Kd, app” value in series [3] (efficiency of incorporation) is recorded as 8.3 ± 4.0 x 10^−6 μM^-1s^-1.
